Patent publication US5010005A, “Bio-oxidation of high alcohols in non-aqueous reaction media” (priority 1989, dated 1991)
≈ marks a conversion by molar mass, not a printed value. Like-named read-outs stand apart in the source and are kept apart here.

Legend:
Solubility in water = assay type: physicochemical
[1] = Partitioning of benzyl alcohol and benzaldehyde between 0.1 M phosphate buffer and solvent; assay type: physicochemical
Protocol: The partitioning of benzyl alcohol and benzaldehyde between 0.1 M phosphate buffer and each solvent used were measured as follows: benzyl alcohol (10 g/L) and benzaldehyde (10 g/L) were dissolved in each of the solvents of interest. Ten millilitres of each solvent were then dispensed into a test tube containing 10 ml of 0.1 M phosphate buffer (pH 8). The tubes were capped, vortexed, and the mixture was allowed to equilibrate for 1 hr at 30° C. Both phases were then assayed for benzaldehyde and benzyl alcohol as described above. […]

alcohol oxidase = molecular target: T1, alcohol oxidase (Komagataella phaffii, UniProt P04842); assay: Inhibition of alcohol oxidase by benzaldehyde; assay type: biochemical, Pichia pastoris
T1 construct: purchased Provesta Corp. (Bartlesville, Oklahoma)
T1 sequence (P04842 2-663 limits assumed): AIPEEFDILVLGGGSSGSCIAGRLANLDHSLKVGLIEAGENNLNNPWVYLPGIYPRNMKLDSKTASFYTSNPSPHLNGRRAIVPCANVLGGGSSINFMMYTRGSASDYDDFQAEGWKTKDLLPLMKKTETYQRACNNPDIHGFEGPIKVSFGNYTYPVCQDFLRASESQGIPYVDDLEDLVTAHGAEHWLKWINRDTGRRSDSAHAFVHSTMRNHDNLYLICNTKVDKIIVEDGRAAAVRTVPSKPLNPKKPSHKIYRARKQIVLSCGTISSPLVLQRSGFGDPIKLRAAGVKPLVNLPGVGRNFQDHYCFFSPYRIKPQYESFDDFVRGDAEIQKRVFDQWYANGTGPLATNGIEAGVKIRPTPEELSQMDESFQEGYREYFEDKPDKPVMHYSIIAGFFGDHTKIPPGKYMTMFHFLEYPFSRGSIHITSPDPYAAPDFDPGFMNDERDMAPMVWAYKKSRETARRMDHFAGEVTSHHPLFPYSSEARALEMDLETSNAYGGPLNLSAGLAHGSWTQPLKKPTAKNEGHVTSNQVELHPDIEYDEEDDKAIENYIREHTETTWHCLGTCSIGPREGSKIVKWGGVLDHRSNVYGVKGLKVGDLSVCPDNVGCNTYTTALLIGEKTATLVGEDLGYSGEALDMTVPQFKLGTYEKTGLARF
Description: Similar potent inhibition of yeast alcohol dehydrogenase by aliphatic and aromatic aldehydes including benzaldehyde has been reported (W.R. Bowen et al, J. Chem. Tech. Biotechnol. 36: 191-196, 1986). In two phase systems, the degree to which alcohol oxidase is inhibited by benzaldehyde is controlled by the concentration of the inhibitor, the concentration of the enzyme, the solvent chosen as a reaction fluid, and on the volumetric ratio of the two phases present. The effect of the first two factors is obvious, however the latter two parameters play an important role in determining the effective concentration of the inhibitor; that concentration to which the biocatalyst is exposed, potentially causing inhibition. Benzaldehyde partitions differently between the two phases depending on the solvent chosen. For example, using toluene as an extractant benzaldehyde was efficiently stripped from the aqueous phase (Table 2) and was, therefore, less able to inhibit alcohol oxidase. It is possible that this would result in improved yields over extended reaction times, despite the sacrifice in terms of initial reaction rate.

O=Cc1ccccc1 [benzaldehyde]
solubility (Solubility in water): ~3000 µg/mL (≈ 28.3 mM) | Partition Coefficient (Corg /Caq) ([1]; Ether / 0.1 M phosphate buffer pH 8, 30° C.): 69.4 | Partition Coefficient (Corg /Caq) ([1]; Ethylacetate / 0.1 M phosphate buffer pH 8, 30° C.): 62.0 | Partition Coefficient (Corg /Caq) ([1]; Hexane / 0.1 M phosphate buffer pH 8, 30° C.): 15.4 | Partition Coefficient (Corg /Caq) ([1]; Toluene / 0.1 M phosphate buffer pH 8, 30° C.): 100 | Inhibition of alcohol oxidase (alcohol oxidase): very strongly inhibited | Inhibition of alcohol oxidase (alcohol oxidase; listed as Benzaldehyde): extremely potent inhibitor
